Measurements: PubChem BioAssay (NCI)
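These data come from cells grown in 96-well plates and exposed to compound for 48 hours at five concentrations. TGI is the concentration that stops growth completely.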

Key:
Experiment in all cases: NCI tumour cell line growth inhibition, 48 h
LXFL 529 NSCLC = system: LXFL 529 NSCLC
DMS 273 small cell lung = system: DMS 273 small cell lung
RXF-631 renal = system: RXF-631 renal
KM20L2 colon = system: KM20L2 colon
DMS 114 small cell lung = system: DMS 114 small cell lung
DLD-1 colon = system: DLD-1 colon
HOP-18 NSCLC = system: HOP-18 NSCLC
SNB-78 CNS = system: SNB-78 CNS
M19-MEL melanoma = system: M19-MEL melanoma
SW-620 colon = system: SW-620 colon
XF 498 CNS = system: XF 498 CNS

Cc1ccc(-c2cc(-c3ccccc3)c(C#N)c(=O)[nH]2)cc1
TGI (LXFL 529 NSCLC): > 100 µM
TGI (DMS 273 small cell lung): > 100 µM
TGI (RXF-631 renal): > 100 µM
TGI (KM20L2 colon): > 100 µM
TGI (DMS 114 small cell lung): > 100 µM
TGI (DLD-1 colon): > 100 µM
TGI (HOP-18 NSCLC): > 100 µM
TGI (SNB-78 CNS): > 100 µM
TGI (M19-MEL melanoma): > 100 µM
TGI (SW-620 colon): > 100 µM

CCOc1ccc(NC(=O)C(=O)Nn2c(N)nnc2N)cc1
TGI (SW-620 colon): > 100 µM

CC(C)OP(=O)(OC(C)C)C(C)(C)O
TGI (SW-620 colon): > 100 µM

COc1ccc(COCC[C@H](C)OC2OC(CO)C(O)C(O)C2O)cc1 (stereo not given in full)
TGI (SW-620 colon): > 100 µM

CN(N=O)c1nc2c(C(N)=O)ncn2s1
TGI (SW-620 colon): > 100 µM

Cc1cc(O)c(/C=N/C(=S)Nc2ccc(S(N)(=O)=O)cc2)c(=O)o1
TGI (SW-620 colon): > 100 µM

O=c1c(Sc2c(SCSc3cnc4ccccc4c3Sc3c[nH]c4ccccc4c3=O)cnc3ccccc23)c[nH]c2ccccc12
TGI (SW-620 colon): > 100 µM

COc1ccc(C2Cc3cc(OC)c(OC)c(OC)c3C2)cc1 (stereo not given)
TGI (XF 498 CNS): 54.5 µM
TGI (DMS 273 small cell lung): > 100 µM
TGI (KM20L2 colon): > 100 µM
TGI (DMS 114 small cell lung): > 100 µM
TGI (DLD-1 colon): > 100 µM
TGI (HOP-18 NSCLC): > 100 µM
TGI (SNB-78 CNS): > 100 µM
TGI (M19-MEL melanoma): > 100 µM
TGI (SW-620 colon): > 100 µM

CC(C)(C)OC(=O)CCCCCNC(=O)CCCCCNC(=O)CCC(CN(CC(=O)OCc1ccccc1)CC(=O)OCc1ccccc1)N(CC(=O)OCc1ccccc1)CC(=O)OCc1ccccc1 (stereo not given)
TGI (SW-620 colon): > 100 µM

NC(=O)[N+](=CC(=S)Nc1ccccc1Cl)C(N)=O
TGI (SW-620 colon): > 100 µM

O=C(Nc1ccccc1)OCCN=C1c2ccccc2CCc2ccccc21
TGI (SW-620 colon): > 100 µM

CC(C)(O)c1cc2c(cc1C(C)(C)O)-c1ccccc1-2
TGI (SW-620 colon): > 100 µM

CC(Oc1ccc(Cl)cc1Cl)C(=O)NN1C(=O)CC(=O)N(c2ccccc2)C1=S (stereo not given)
TGI (SW-620 colon): > 100 µM

COc1cc2cc(C(=O)N3CC(CCl)c4ccc([N+](C)(C)Cc5ccccc5[N+](=O)[O-])cc43)[nH]c2c(OC)c1OC (stereo not given)
TGI (SW-620 colon): > 75.9 µM

COC(=O)c1ccc2c(c1)CC1(C2)Cc2ccccc2C1=O (stereo not given)
TGI (SW-620 colon): > 100 µM

CCCCOC/N=C(/N)NC#N
TGI (LXFL 529 NSCLC): > 100 µM
TGI (XF 498 CNS): > 100 µM
TGI (DMS 273 small cell lung): > 100 µM
TGI (RXF-631 renal): > 100 µM
TGI (KM20L2 colon): > 100 µM
TGI (DMS 114 small cell lung): > 100 µM
TGI (DLD-1 colon): > 100 µM
TGI (HOP-18 NSCLC): > 100 µM
TGI (SNB-78 CNS): > 100 µM
TGI (SW-620 colon): 34.3 µM

CCSC1=N/C(=C\c2ccco2)C(=O)N1
TGI (SW-620 colon): > 100 µM

C=CCN1CCC(c2cc(C(=O)OCC)[nH]c2-c2cc(C)no2)C1=O (stereo not given)
TGI (SW-620 colon): > 100 µM

CCOC(=O)c1c[nH]c(C(=O)C=[N+]=[N-])c1C1CCN(CC)C1=S (stereo not given)
TGI (SW-620 colon): > 100 µM
